Literature values as cited in US20090148519A1, “PULSED-RELEASE PREPARATION HAVING IMPROVED DISINTEGRATION PROPERTIES IN VIVO” (priority 2005, published 2009).

| SMILES | half-life at pH 7 |
| --- | --- |
| COc1ccnc(C[S+]([O-])c2nc3cc(OC(F)F)ccc3[nH]2)c1OC (centres unmarked) [pantoprazole] | 39 hours |
| COCCCOc1ccnc(C[S+]([O-])c2nc3ccccc3[nH]2)c1C (centres unmarked) [rabeprazole] | 30 minutes |
